Assay [1] concerns the target T1, Serine/threonine-protein kinase Sgk3 (Homo sapiens) (UniProt Q96BR1).
T1 sequence (whole entry): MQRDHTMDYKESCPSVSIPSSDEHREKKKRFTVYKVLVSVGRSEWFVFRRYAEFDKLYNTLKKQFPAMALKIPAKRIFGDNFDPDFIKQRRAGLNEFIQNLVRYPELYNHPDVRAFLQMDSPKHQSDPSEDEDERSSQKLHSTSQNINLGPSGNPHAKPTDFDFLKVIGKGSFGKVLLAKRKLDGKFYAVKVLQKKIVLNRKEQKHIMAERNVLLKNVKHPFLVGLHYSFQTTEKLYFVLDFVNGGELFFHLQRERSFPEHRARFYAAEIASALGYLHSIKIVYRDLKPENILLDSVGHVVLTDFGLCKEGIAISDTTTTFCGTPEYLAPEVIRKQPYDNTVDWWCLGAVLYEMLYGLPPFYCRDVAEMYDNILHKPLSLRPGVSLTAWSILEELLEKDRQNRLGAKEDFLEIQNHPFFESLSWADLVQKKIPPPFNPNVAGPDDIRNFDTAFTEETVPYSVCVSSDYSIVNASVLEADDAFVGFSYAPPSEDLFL
In words: Inhibition of human recombinant SGK3 at 40 nM related to control ULK1.

For assay [2], the target named is Serine/threonine-protein kinase PAK 6 (Homo sapiens) (UniProt Q9NQU5). In words: Inhibition of human recombinant PAK6 at 40 nM in presence of ATP by radiometric assay relative to control.
Serine/threonine-protein kinase PAK 6 (Homo sapiens), sequence (Q9NQU5 whole entry, looked up): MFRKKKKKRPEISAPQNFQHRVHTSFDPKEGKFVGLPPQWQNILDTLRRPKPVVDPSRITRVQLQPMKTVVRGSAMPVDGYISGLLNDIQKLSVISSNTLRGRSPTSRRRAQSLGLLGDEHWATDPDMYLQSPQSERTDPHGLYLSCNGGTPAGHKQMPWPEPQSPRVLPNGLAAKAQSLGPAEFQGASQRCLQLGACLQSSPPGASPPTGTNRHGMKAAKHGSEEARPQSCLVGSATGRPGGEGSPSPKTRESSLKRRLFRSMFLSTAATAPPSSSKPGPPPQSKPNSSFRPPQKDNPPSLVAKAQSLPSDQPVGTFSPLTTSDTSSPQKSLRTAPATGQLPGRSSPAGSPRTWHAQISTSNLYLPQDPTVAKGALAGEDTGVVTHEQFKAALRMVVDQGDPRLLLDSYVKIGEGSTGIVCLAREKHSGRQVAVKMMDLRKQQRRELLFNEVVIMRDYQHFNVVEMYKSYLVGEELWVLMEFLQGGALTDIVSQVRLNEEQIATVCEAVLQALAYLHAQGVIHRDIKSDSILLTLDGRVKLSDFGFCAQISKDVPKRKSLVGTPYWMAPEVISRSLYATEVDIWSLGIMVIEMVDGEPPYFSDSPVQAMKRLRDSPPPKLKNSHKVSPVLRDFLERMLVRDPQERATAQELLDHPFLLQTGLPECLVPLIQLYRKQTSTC
Assay [3] concerns the target Glycogen synthase kinase-3 alpha (Homo sapiens) (UniProt P49840). In words: Inhibition of human recombinant GSK3A at 500 nM related to control ULK1.
The target in assay [4] is T2, Serine/threonine-protein kinase Nek9 (Homo sapiens) (UniProt Q8TD19).
T2 sequence (whole entry): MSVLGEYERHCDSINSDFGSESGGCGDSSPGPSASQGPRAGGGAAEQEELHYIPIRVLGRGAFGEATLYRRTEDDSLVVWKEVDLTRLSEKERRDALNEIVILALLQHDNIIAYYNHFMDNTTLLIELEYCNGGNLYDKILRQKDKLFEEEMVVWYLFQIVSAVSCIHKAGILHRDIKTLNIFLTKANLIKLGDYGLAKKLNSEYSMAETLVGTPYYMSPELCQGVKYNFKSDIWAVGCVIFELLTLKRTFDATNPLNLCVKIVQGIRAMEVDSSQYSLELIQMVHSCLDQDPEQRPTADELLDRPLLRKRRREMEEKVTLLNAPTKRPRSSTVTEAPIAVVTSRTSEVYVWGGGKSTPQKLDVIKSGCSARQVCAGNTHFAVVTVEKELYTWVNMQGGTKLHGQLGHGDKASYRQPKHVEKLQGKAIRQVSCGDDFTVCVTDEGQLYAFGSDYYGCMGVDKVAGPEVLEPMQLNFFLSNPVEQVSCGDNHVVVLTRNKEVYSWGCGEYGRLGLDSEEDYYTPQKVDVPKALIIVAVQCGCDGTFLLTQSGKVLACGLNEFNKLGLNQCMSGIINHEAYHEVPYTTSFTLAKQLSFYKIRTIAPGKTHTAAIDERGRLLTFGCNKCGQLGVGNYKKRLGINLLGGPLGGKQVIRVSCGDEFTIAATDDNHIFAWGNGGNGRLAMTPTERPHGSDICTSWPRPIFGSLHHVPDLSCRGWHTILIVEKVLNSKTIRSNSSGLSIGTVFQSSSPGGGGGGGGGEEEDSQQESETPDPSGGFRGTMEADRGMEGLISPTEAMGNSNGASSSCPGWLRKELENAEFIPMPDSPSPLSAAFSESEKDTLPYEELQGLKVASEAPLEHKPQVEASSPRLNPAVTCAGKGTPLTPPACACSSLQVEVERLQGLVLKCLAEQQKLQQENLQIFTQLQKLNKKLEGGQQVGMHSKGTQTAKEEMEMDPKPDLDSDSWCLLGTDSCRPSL
In words: Inhibition of human recombinant NEK9 at 500 nM related to control ULK1.

The target in assay [5] is T3, Serine/threonine-protein kinase DCLK2 (Homo sapiens) (UniProt Q8N568).
T3 sequence (whole entry): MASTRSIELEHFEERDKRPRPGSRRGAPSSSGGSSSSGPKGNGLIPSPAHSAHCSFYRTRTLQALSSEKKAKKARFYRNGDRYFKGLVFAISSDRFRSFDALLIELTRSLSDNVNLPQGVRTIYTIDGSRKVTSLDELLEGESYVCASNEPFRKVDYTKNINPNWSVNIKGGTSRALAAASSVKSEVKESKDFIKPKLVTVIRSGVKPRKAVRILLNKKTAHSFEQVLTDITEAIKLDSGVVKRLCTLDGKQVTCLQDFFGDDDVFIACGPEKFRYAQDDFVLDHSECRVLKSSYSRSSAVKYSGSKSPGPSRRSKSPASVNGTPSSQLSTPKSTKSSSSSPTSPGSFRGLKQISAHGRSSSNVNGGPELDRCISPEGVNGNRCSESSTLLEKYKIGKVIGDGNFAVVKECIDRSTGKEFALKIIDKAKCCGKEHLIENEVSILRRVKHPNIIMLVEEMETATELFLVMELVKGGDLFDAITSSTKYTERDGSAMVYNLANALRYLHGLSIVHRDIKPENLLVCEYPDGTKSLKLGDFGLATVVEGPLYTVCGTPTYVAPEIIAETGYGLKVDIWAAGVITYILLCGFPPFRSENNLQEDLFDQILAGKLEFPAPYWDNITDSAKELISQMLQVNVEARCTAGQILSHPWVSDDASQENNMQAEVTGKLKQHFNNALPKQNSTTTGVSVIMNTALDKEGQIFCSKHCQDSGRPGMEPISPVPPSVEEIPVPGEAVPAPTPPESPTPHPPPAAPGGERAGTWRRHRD
In words: Inhibition of human recombinant DCAMKL2 at 500 nM related to control ULK1.

The target in assay [6] is Serine/threonine-protein kinase MARK1 (Homo sapiens) (UniProt Q9P0L2). In words: Inhibition of human recombinant MARK1 at 500 nM related to control ULK1.
Serine/threonine-protein kinase MARK1 (Homo sapiens), sequence (Q9P0L2 whole entry, looked up): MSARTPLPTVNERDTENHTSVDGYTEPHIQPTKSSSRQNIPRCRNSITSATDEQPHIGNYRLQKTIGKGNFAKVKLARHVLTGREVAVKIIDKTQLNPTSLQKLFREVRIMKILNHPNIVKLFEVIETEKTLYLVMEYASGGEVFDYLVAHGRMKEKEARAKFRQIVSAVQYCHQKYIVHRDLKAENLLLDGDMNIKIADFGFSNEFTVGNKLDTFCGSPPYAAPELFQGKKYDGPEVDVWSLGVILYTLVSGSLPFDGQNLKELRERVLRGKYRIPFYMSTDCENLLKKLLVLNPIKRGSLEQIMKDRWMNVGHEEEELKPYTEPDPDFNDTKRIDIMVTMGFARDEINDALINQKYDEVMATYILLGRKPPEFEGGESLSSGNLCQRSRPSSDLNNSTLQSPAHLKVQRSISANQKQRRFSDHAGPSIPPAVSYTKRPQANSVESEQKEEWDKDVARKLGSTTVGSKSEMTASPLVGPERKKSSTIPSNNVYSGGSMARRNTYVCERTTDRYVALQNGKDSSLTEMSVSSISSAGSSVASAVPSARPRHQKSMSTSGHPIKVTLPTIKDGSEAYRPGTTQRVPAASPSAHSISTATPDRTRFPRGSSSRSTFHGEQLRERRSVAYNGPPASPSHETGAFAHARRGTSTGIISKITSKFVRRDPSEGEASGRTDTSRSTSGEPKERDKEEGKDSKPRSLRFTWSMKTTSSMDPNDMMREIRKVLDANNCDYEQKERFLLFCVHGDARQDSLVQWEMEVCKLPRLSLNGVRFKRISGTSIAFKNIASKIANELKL
For assay [7], the target named is Serine/threonine-protein kinase SIK1 (Homo sapiens) (UniProt P57059). In words: Inhibition of human recombinant SIK at 500 nM related to control ULK1.
Serine/threonine-protein kinase SIK1 (Homo sapiens), sequence (P57059 whole entry): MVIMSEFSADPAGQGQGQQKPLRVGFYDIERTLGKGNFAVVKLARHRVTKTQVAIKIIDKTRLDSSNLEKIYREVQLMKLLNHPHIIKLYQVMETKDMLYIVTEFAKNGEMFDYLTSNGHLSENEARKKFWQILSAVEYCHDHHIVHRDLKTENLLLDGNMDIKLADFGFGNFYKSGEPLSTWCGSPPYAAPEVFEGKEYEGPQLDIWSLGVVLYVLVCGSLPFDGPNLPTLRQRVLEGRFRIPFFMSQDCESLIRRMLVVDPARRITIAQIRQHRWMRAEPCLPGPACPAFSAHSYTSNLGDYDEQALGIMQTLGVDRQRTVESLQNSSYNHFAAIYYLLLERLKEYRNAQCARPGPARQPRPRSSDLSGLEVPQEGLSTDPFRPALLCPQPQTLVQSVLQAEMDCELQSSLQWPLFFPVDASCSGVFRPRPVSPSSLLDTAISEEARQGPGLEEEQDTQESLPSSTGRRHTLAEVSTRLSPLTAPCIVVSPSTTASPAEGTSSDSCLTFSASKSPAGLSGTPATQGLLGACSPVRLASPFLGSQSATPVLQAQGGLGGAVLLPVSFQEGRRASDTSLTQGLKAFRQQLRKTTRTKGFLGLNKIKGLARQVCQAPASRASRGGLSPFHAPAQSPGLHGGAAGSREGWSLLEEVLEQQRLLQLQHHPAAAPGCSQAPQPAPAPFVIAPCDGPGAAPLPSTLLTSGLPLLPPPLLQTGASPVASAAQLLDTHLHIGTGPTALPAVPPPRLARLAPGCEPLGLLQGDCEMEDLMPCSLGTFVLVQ
The target in assay [8] is Cell division cycle 7-related protein kinase (Homo sapiens) (UniProt O00311). In words: Inhibition of human recombinant CDC7 at 15 nM related to control ULK1.
Cell division cycle 7-related protein kinase (Homo sapiens), sequence (O00311 whole entry, looked up): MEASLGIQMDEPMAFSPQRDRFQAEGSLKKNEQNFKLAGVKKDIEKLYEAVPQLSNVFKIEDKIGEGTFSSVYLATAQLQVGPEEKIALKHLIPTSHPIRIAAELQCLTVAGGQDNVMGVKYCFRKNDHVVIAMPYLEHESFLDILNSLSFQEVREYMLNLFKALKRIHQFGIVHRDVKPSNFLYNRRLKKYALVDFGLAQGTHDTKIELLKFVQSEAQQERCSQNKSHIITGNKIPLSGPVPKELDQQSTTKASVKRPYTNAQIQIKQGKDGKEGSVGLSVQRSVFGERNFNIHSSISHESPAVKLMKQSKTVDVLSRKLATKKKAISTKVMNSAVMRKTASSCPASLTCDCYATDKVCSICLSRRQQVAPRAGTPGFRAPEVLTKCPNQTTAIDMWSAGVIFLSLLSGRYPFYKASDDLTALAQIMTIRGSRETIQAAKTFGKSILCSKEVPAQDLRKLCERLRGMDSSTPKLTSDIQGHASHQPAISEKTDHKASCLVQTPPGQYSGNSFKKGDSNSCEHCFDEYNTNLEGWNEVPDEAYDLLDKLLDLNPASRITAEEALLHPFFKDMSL

Each structure is given as a SMILES string.

Glycogen synthase kinase-3 alpha (Homo sapiens), sequence (P49840 2-483 limits assumed): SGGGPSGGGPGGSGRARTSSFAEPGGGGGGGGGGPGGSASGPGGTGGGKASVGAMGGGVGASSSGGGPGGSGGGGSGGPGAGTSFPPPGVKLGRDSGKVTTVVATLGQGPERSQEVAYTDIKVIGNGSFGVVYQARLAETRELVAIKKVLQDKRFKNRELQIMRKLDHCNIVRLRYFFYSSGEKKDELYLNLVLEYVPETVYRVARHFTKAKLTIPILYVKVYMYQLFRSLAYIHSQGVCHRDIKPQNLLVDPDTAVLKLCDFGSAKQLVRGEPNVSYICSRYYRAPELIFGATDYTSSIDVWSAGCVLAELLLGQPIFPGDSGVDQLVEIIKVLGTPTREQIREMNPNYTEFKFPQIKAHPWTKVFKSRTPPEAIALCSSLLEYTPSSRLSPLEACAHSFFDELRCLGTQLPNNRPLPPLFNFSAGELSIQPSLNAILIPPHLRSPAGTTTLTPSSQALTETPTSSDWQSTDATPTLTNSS

One may read the inhibition as the relative decrease from the control value, in per cent. For `O=C(N[C@@H](C1CC1)C(F)(F)F)c1cc(-c2cnn3cc(-c4ccc(F)cc4)cnc23)cs1`, in assay [1], the fold change (FC) is 0. Besides, in assay [2], the inhibition came out at 7%.

For `CNC(=O)c1ccccc1Oc1nc(Nc2cc(OC)c(OC)c(OC)c2)ncc1Br`, the fold change (FC) was 0 in assay [3]; 0 in assay [4]; 0 in assay [5]; 0.73 in assay [6]; 0.27 in assay [7].

Take `CC(C)[C@H](NC(=O)c1cc(-c2cnn3cc(-c4ccc(OCCN5CCCCC5)cc4)cnc23)cs1)C(F)(F)F`: the fold change (FC) in assay [8] was 0.09.

These data come from ChEMBL document CHEMBL5653631, “A Potent and Selective ULK1 Inhibitor Suppresses Autophagy and Sensitizes Cancer Cells to Nutrient Stress” (iScience, 2018).
